For 11 compounds, IC50 results are on record in patent publication US8076338B2, “Kinase modulators and methods of use” (Exelixis, Inc., priority 2004, dated 2011).

SMILES strings stand for the structures. pIC50: −log10 of the molar value.

One assay addresses p70S6K (Homo sapiens, UniProt P23443). Kind of assay: Luciferase-coupled chemiluminescence kinase assay (ATP consumption). The following applies: Table 1; class symbols per key. It counts as biochemical. The method in brief:
(§1)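 Enzyme at 2.5-5 nM was preincubated 30 min at room temperature with compound in Tris pH 7.5, MgCl2, TX-100, DTT, then reacted with ATP for 3 h at ambient temperature. Remaining ATP was quantified by luciferase-luciferin chemiluminescence, with consumption kept at 25-60%; […].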

Another assay addresses AktK (Homo sapiens, UniProt P31749). The description is as above. The assay is classed as biochemical. The conditions noted are these: Table 1; class symbols per key; read-out: AKT-1 IC50. In a few lines: as §1

Usually pIC50 stands for the IC50 on a negative log10 scale, so that one unit is a factor of ten.

AktK, sequence (P31749 whole entry): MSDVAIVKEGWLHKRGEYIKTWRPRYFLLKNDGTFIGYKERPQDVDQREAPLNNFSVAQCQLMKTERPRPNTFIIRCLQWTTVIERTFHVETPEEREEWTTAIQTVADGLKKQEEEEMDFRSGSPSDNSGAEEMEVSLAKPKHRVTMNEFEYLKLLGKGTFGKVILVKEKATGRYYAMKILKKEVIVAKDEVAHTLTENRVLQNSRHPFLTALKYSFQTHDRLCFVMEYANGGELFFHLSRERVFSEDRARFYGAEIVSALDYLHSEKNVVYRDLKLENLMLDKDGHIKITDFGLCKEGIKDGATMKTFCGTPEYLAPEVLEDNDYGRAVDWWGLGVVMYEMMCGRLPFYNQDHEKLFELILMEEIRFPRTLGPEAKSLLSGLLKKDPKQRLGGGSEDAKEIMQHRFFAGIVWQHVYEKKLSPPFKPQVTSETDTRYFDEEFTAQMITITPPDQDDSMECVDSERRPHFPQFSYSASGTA
p70S6K, sequence (P23443 whole entry): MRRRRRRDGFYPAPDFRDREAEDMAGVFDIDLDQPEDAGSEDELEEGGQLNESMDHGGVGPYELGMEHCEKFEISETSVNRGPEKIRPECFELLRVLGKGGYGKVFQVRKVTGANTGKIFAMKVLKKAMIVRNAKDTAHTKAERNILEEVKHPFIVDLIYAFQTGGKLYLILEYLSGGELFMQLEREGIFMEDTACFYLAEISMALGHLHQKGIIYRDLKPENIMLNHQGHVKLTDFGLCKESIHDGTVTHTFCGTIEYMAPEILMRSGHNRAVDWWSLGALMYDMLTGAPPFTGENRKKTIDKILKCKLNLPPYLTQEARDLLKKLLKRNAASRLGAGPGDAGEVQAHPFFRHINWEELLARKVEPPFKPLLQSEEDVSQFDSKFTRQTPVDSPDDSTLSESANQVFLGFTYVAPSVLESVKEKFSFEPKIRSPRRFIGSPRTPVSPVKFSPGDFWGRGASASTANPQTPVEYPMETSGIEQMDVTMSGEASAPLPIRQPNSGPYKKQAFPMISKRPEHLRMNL

Regarding `COC(=O)c1cc(NCCN2CCCC2)c(C)c(N2CCN(c3ncnc4[nH]nc(Br)c34)CC2)c1` [Entry 190, methyl 3-[4-(3-bromo-1H-pyrazolo[3,4-d]pyrimidin-4-yl)piperazin-1-yl]-4-methyl-5-[(2-pyrrolidin-1-ylethyl)amino]benzoate], the negative logarithm of the IC50 (pIC50) on p70S6K and at AktK was greater than 7.00 throughout.
Regarding `Cc1c(Br)cc(C(=O)Nc2ccccc2)cc1N1CCN(c2ncnc3[nH]nc(Br)c23)CC1` [Entry 191, 3-bromo-5-[4-(3-bromo-1H-pyrazolo[3,4-d]pyrimidin-4-yl)piperazin-1-yl]-4-methyl-N-phenylbenzamide], the figures for the pIC50 against p70S6K and at AktK were greater than 7.00 and 6.00 to 7.00, respectively.
The like results for `CCc1n[nH]c2ncnc(N3CCN(c4cc(C(=O)Nc5ccccc5)cc(Br)c4C)CC3)c12` [Entry 192, 3-bromo-5-[4-(3-ethyl-1H-pyrazolo[3,4-d]pyrimidin-4-yl)piperazin-1-yl]-4-methyl-N-phenylbenzamide] were, in that order, greater than 7.00 and 6.00 to 7.00.
Take `Cc1c(NCCN(C)C(C)C)cc(Cl)cc1N1CCN(c2ncnc3[nH]nc(Br)c23)CC1` [Entry 193, N′-{3-[4-(3-bromo-1H-pyrazolo[3,4-d]pyrimidin-4-yl)piperazin-1-yl]-5-chloro-2-methylphenyl}-N-methyl-N-(1-methylethyl)ethane-1,2-diamine]: the pIC50 against p70S6K and on AktK was greater than 7.00 in each case.
Turning to `Cc1c(NCCN2CCCC2)cc(C(=O)Nc2ccccc2)cc1N1CCN(c2ncnc3[nH]nc(Br)c23)CC1` [Entry 194, 3-[4-(3-bromo-1H-pyrazolo[3,4-d]pyrimidin-4-yl)piperazin-1-yl]-4-methyl-N-phenyl-5-[(2-pyrrolidin-1-ylethyl)amino]benzamide], the pIC50 against p70S6K and on AktK was greater than 7.00 each time.
Take `Cc1c(NCCN(C)C)cc(OCC(C)C)cc1N1CCN(c2ncnc3[nH]nc(Br)c23)CC1` [Entry 195, N′-{3-[4-(3-bromo-1H-pyrazolo[3,4-d]pyrimidin-4-yl)piperazin-1-yl]-2-methyl-5-[(2-methylpropyl)ox-y]phenyl}-N,N-dimethylethane-1,2-diamine]: the negative logarithm of the IC50 (pIC50) at p70S6K and at AktK was greater than 7.00 throughout.
On to `Cc1ccc(C(=O)N(C)C)cc1N1CCN(c2ncnc3[nH]nc(Br)c23)CC1` [Entry 196, 3-[4-(3-bromo-1H-pyrazolo[3,4-d]pyrimidin-4-yl)piperazin-1-yl]-N,N,4-trimethylbenzamide], for which the pIC50 on p70S6K is greater than 7.00; at AktK, 6.00 to 7.00.
The like results for `Cc1ccc(C(=O)NCC(C)C)cc1N1CCN(c2ncnc3[nH]nc(Cl)c23)CC1` [Entry 197, 3-[4-(3-chloro-1H-pyrazolo[3,4-d]pyrimidin-4-yl)piperazin-1-yl]-4-methyl-N-(2-methylpropyl)benzamide] were, in that order, greater than 7.00 and 5.00 to 6.00.
For `Cc1c(NCCN2CCCC2)cc(C(=O)N(C)C)cc1N1CCN(c2ncnc3[nH]nc(Br)c23)CC1` [Entry 198, 3-[4-(3-bromo-1H-pyrazolo[3,4-d]pyrimidin-4-yl)piperazin-1-yl]-N,N,4-trimethyl-5-[(2-pyrrolidin-1-ylethyl)amino]benzamide], the negative-log IC50 (pIC50) at p70S6K was greater than 7.00; on AktK it was 6.00 to 7.00.
Consider `Cc1ccc(C(=O)Nc2ccccc2)cc1N1CCN(c2ncnc3[nH]nc(Br)c23)CC1=O` [Entry 199, 3-[4-(3-bromo-1H-pyrazolo[3,4-d]pyrimidin-4-yl)-2-oxopiperazin-1-yl]-4-methyl-N-phenylbenzamide], for which the negative-log IC50 (pIC50) at p70S6K was greater than 7.00; on AktK it was 5.00 to 6.00.
The matching figures for `Cc1ccc(C(=O)Nc2ccccc2)cc1N1CCN(c2ncnc3[nH]nc(Br)c23)C[C@@H]1CO` [Entry 200, 3-[(2R)-4-(3-bromo-1H-pyrazolo[3,4-d]pyrimidin-4-yl)-2-(hydroxymethyl)piperazin-1-yl]-4-methyl-N-phenylbenzamide]: greater than 7.00 and greater than 7.00.
